Legend:
[1] = test system: Eschericia coli (E. coli) strain ATCC25922; assay: Standard microdilution assay, MIC against E. coli ATCC25922; assay type: cell-based; settings: Escherichia coli; E. coli strain ATCC25922, standard microdilution assay; cutoff 16 micrograms/mL; read-out: MIC E. Coli
In short: (§1)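 MIC determined by broth microdilution following CLSI protocols, with reference strains run in parallel for quality control. Activity scored +/− at a cutoff of 16 micrograms/mL.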

[2] = test system: Staphylococcus aureus (S. aureus) 11540 strain; assay: Standard microdilution assay, MIC against S. aureus 11540; assay type: cell-based; settings: S. aureus 11540 strain, standard microdilution assay, cutoff 16 micrograms/mL, read-out: MIC S. aureus
In short: as §1

Structure (SMILES)	MIC [1]	MIC [2]
C[C@H](N)CCCc1cc(Cl)c(F)c(-c2cc3cn(-c4ccc(CN[C@H](CCNC(=N)N)CCc5nccs5)cc4)c(=O)nc3[nH]2)c1 [Compound 528]	< 16 µg/mL	< 16 µg/mL
C[C@H](N)CCCc1cc(Cl)c(F)c(-c2cc3cn(-c4ccc([C@@H]5CCC[C@@H](Cc6ncc(N)s6)N5)cc4)c(=O)nc3[nH]2)c1 [Compound 529]	> 16 µg/mL	> 16 µg/mL
C[C@H](N)CCCc1cc(Cl)c(F)c(-c2cc3cn(-c4ccc([C@@H]5CCC[C@@H](CCn6cccn6)N5)cc4)c(=O)nc3[nH]2)c1 [Compound 530]	> 16 µg/mL	> 16 µg/mL
C[C@H](N)CCCc1cccc(-c2cc3cn(-c4ccc([C@@H]5CCC[C@@H](CCNC(=N)N)N5)cc4)c(=O)nc3[nH]2)c1 [Compound 531]	< 16 µg/mL	< 16 µg/mL
C[C@H](N)CCCc1cc(Cl)c(F)c(-c2cc3cn(-c4ccc([C@@H]5CCC[C@@H](CCC6CC6)N5)cc4)c(=O)nc3[nH]2)c1 [Compound 532]	> 16 µg/mL	< 16 µg/mL
C[C@H](N)CCCc1cc(Cl)c(F)c(-c2cc3cn(-c4ccc([C@@H]5CCC[C@@H](CCn6ccnc6)N5)cc4)c(=O)nc3[nH]2)c1 [Compound 533]	< 16 µg/mL	< 16 µg/mL
C[C@H](N)CCCc1cc(Cl)c(F)c(-c2cc3cn(-c4ccc(CO[C@H](CCNC(=N)N)CNc5nccs5)cc4)c(=O)nc3[nH]2)c1 [Compound 534]	< 16 µg/mL	< 16 µg/mL
C[C@H](N)CCCc1cc(Cl)c(F)c(-c2cc3cn(-c4ccc([C@@H]5CCC[C@@H](CCNc6nccs6)N5)cc4)c(=O)nc3[nH]2)c1 [Compound 535]	> 16 µg/mL	< 16 µg/mL
C[C@H](N)CCCc1cc(Cl)c(F)c(-c2cc3cn(-c4ccc(CN[C@H](CCNC(=N)N)CNc5ncc[nH]5)cc4)c(=O)nc3[nH]2)c1 [Compound 536]	< 16 µg/mL	< 16 µg/mL
C[C@H](N)CCCc1cc(Cl)c(F)c(-c2cc3cn(-c4ccc(CN[C@H](CCN)CNc5ncc[nH]5)cc4)c(=O)nc3[nH]2)c1 [Compound 537]	< 16 µg/mL	< 16 µg/mL
C[C@H](N)CCCc1cc(Cl)c(F)c(-c2cc3cn(-c4ccc([C@@H]5CCC[C@@H](Cc6cnc(N)s6)N5)cc4)c(=O)nc3[nH]2)c1 [Compound 538]	> 16 µg/mL	< 16 µg/mL
C[C@H](N)CCCc1cc(Cl)c(F)c(-c2cc3cn(-c4ccc([C@@H]5CCC[C@@H](Cn6cn[nH]c6=O)N5)cc4)c(=O)nc3[nH]2)c1 [Compound 539]	> 16 µg/mL	> 16 µg/mL
C[C@H](N)CCCc1cc(Cl)c(F)c(-c2cc3cn(-c4ccc([C@@H]5CCC[C@@H](CNC(=N)N)N5)cc4)c(=O)nc3[nH]2)c1 [Compound 540]	< 16 µg/mL	< 16 µg/mL
C[C@H](N)CCCc1cc(Cl)c(F)c(-c2cc3cn(-c4ccc([C@H]5CCC[C@H](CCNC6=NCCN6)N5)cc4)c(=O)nc3[nH]2)c1 [Compound 541]	< 16 µg/mL	< 16 µg/mL
C[C@H](N)CCCc1cc(Cl)c(F)c(-c2cc3cn(-c4ccc([C@H]5CCC[C@H](CCNc6ncc[nH]6)N5)cc4)c(=O)nc3[nH]2)c1 [Compound 542]	< 16 µg/mL	< 16 µg/mL
C[C@H](N)CCCc1cc(Cl)c(F)c(-c2cc3cn(-c4ccc([C@@H]5CCC[C@@H](CCc6c[nH]nn6)N5)cc4)c(=O)nc3[nH]2)c1 [Compound 543]	> 16 µg/mL	> 16 µg/mL
C[C@H](N)CCCc1cc(Cl)c(F)c(-c2cc3cn(-c4ccc(CN[C@H](CCNC(=N)N)CNS(C)(=O)=O)cc4)c(=O)nc3[nH]2)c1 [Compound 544]	< 16 µg/mL	< 16 µg/mL
C[C@H](N)CCCc1cc(Cl)c(F)c(-c2cc3cn(-c4ccc([C@@H]5CCC[C@@H](CCn6ncoc6=O)N5)cc4)c(=O)nc3[nH]2)c1 [Compound 545]	> 16 µg/mL	> 16 µg/mL

Structure (SMILES)	MIC [1]	MIC [2]
C[C@H](N)CCCc1cc(Cl)c(F)c(-c2cc3cn(-c4ccc([C@@H]5CCC[C@@H](CCc6nccs6)N5)cc4)c(=O)nc3[nH]2)c1 [Compound 546]	> 16 µg/mL	< 16 µg/mL
C[C@H](N)CCCc1cc(Cl)c(F)c(-c2cc3cn(-c4ccc([C@@H]5CCC[C@@H](CCn6cnc([N+](=O)[O-])c6)N5)cc4)c(=O)nc3[nH]2)c1 [Compound 548]	> 16 µg/mL	< 16 µg/mL
C[C@H](N)CCCc1cc(Cl)c(F)c(-c2cc3cn(-c4ccc([C@@H]5CCC[C@@H](CCc6c[nH]cn6)N5)cc4)c(=O)nc3[nH]2)c1 [Compound 549]	< 16 µg/mL	< 16 µg/mL
C[C@H](N)CCCc1cc(Cl)c(F)c(-c2cc3cn(-c4ccc([C@@H]5CCC[C@@H](CNCC6CCOCC6)N5)cc4)c(=O)nc3[nH]2)c1 [Compound 550]	> 16 µg/mL	> 16 µg/mL
C[C@H](N)CCCc1cc(Cl)c(F)c(-c2cc3cn(-c4ccc([C@@H]5CCC[C@@H](CNCc6nccn6C)N5)cc4)c(=O)nc3[nH]2)c1 [Compound 551]	> 16 µg/mL	> 16 µg/mL
C[C@H](N)CCCc1cc(Cl)c(F)c(-c2cc3cn(-c4ccc([C@@H]5CCC[C@@H](CCNc6ncc[nH]6)N5)cc4)c(=O)nc3[nH]2)c1 [Compound 552]	< 16 µg/mL	< 16 µg/mL
C[C@H](N)CCCc1cc(OC(F)(F)F)c(F)c(-c2cc3cn(-c4ccc([C@@H]5CCC[C@@H](CCNc6ncc[nH]6)N5)cc4)c(=O)nc3[nH]2)c1 [Compound 553]	< 16 µg/mL	< 16 µg/mL
C[C@H](N)CCCc1cc(Cl)c(F)c(-c2cc3cn(-c4ccc([C@H]5CCO[C@H](CCN)C5)cc4)c(=O)nc3[nH]2)c1 [Compound 554]	< 16 µg/mL	< 16 µg/mL
C[C@H](N)CCCc1cc(Cl)c(F)c(-c2cc3cn(-c4ccc([C@H]5CCO[C@H](CCNC(=N)N)C5)cc4)c(=O)nc3[nH]2)c1 [Compound 555]	< 16 µg/mL	< 16 µg/mL
C[C@H](N)CCCc1cc(Cl)c(F)c(-c2cc3cn(-c4ccc([C@@H]5CCC[C@@H](CCCNC(=N)N)N5)cc4)c(=O)nc3[nH]2)c1 [Compound 556]	< 16 µg/mL	< 16 µg/mL
C[C@H](N)CCCc1cc(Cl)c(F)c(-c2cc3cn(-c4ccc([C@@H]5CCC[C@@H](CCCN)N5)cc4)c(=O)nc3[nH]2)c1 [Compound 557]	< 16 µg/mL	< 16 µg/mL
C[C@H](N)CCCc1cc(Cl)c(F)c(-c2cc3cn(-c4ccc([C@@H]5CCC[C@@H](CNCc6ccncc6)N5)cc4)c(=O)nc3[nH]2)c1 [Compound 558]	< 16 µg/mL	< 16 µg/mL
C[C@H](N)CCCc1cc(Cl)c(F)c(-c2cc3cn(-c4ccc([C@@H]5CCC[C@@H](CNCC6CCCC6)N5)cc4)c(=O)nc3[nH]2)c1 [Compound 559]	< 16 µg/mL	< 16 µg/mL
Cc1nnc(NC[C@@H](CCNC(=N)N)NCc2ccc(-n3cc4cc(-c5cc(CCC[C@H](C)N)cc(Cl)c5F)[nH]c4nc3=O)cc2)s1 [Compound 560]	< 16 µg/mL	< 16 µg/mL
C[C@H](N)CCCc1cc(Cl)c(F)c(-c2cc3cn(-c4ccc([C@H]5CCO[C@H](CNC(=N)N)C5)cc4)c(=O)nc3[nH]2)c1 [Compound 561]	< 16 µg/mL	< 16 µg/mL
C[C@H](N)CCCc1cc(Cl)c(F)c(-c2cc3cn(-c4ccc(CNC5CC(NC(=N)N)C5)cc4)c(=O)nc3[nH]2)c1 (stereo partly shown) [Compound 563]	< 16 µg/mL	< 16 µg/mL
C[C@H](N)CCCc1cc(Cl)c(F)c(-c2cc3cn(-c4ccc(C5=NCCCN5)cc4)c(=O)nc3[nH]2)c1 [Compound 564]	< 16 µg/mL	< 16 µg/mL
